Among the test systems are SNB-19; U-251; SR; PC-3; UACC-62; Hs-578T; SK-MEL-28; SK-MEL-2; NCI-H23; MCF7; OVCAR-8; UO-31; IGROV-1; BT-549; HCT-116; SN12C; ACHN; HT-29; NCI/ADR-RES; HCC 2998.
Common to all, as to experiment: NCI tumour cell line growth inhibition, 48 h

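Method: 48-hour compound exposure of cells in 96-well plates, five concentrations, linear interpolation of endpoints. At the GI50, growth is halved.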 Calls of active or inactive are those of the source. Cut-off read from the data, not from the text of the source: active = GI50 up to about 1.1 µM and inactive = higher.

These results are taken from ChEMBL document CHEMBL1201862, “PubChem BioAssay data set” (2004).

As for `O=C(CSC1=NCCN1)c1ccccc1`, the GI50 in the experiment with SNB-19, in the experiment on U-251, with SR, with PC-3, in the experiment with UACC-62 and with Hs-578T was > 100 µM (inactive) each time. For the same compound, the GI50 in the experiment with SK-MEL-28, with SK-MEL-2, with NCI-H23, in the experiment on MCF7, with OVCAR-8 and in the experiment on UO-31 was > 100 µM (inactive) in each case. For the same compound, the GI50 in the experiment with IGROV-1, in the experiment with BT-549, in the experiment on HCT-116, in the experiment on SN12C, in the experiment with ACHN and with HT-29 was > 100 µM (inactive) throughout. In addition, the GI50 with NCI/ADR-RES was > 100 µM (inactive).

In the case of `COc1cc2cc(C(=O)Nc3cc4n(n3)-c3ccccc3C4)[nH]c2c(OC)c1OC`, the GI50 in the experiment with SNB-19 was 9.48 µM (inactive); with U-251, 8.04 µM (inactive); with SR, 2.26 µM (inactive); in the experiment with PC-3, 2.71 µM (inactive); with Hs-578T, 2.98 µM (inactive); with HCC 2998 it was 10.4 µM (inactive). The GI50 was 3.72 µM (inactive) with SK-MEL-28; 2.3 µM (inactive) in the experiment on SK-MEL-2; 2.75 µM (inactive) in the experiment on NCI-H23; 2.58 µM (inactive) in the experiment with MCF7; 1.26 µM (inactive) in the experiment with OVCAR-8; 1.97 µM (inactive) in the experiment with UO-31. Besides, the GI50 with IGROV-1 is 2.73 µM (inactive); in the experiment with BT-549, 1.19 µM (inactive); in the experiment on HCT-116 it was 2.73 µM (inactive); with SN12C, 8.79 µM (inactive); in the experiment on ACHN it was 4.72 µM (inactive); in the experiment with HT-29 it was 11.9 µM (inactive). In addition, the GI50 in the experiment with NCI/ADR-RES was 1.25 µM (inactive).

Take `Cc1cc(-c2nc3cc(F)c(F)cc3s2)ccc1N`: the GI50 in the experiment on SNB-19 was > 59.2 µM (inactive); in the experiment with U-251 it was > 45.4 µM (inactive); in the experiment on SR, > 100 µM (inactive); with PC-3, > 52.5 µM (inactive); in the experiment with UACC-62, > 100 µM (inactive); in the experiment on Hs-578T it was 61.1 µM (inactive). Also, the GI50 with HCC 2998 was > 42.4 µM (inactive); in the experiment on SK-MEL-28, > 100 µM (inactive); in the experiment with SK-MEL-2, > 58.5 µM (inactive); in the experiment with NCI-H23, > 70.6 µM (inactive); in the experiment on MCF7 it was < 0.0123 µM (active); with OVCAR-8 it was > 45.4 µM (inactive). Also, the GI50 is > 59.4 µM (inactive) in the experiment with UO-31; > 100 µM (inactive) in the experiment on BT-549; > 55.6 µM (inactive) with HCT-116; > 74.6 µM (inactive) in the experiment with SN12C; > 79.1 µM (inactive) with ACHN; > 61.1 µM (inactive) with HT-29. In addition, in the experiment on NCI/ADR-RES, the GI50 was > 59.3 µM (inactive).

Consider `CCc1nnc(-n2c(C)nc3cc(Cl)ccc3c2=O)s1`, for which the GI50 in the experiment with SNB-19 was 36.1 µM (inactive); in the experiment on U-251, 42.7 µM (inactive); in the experiment with SR, 34.5 µM (inactive); in the experiment with PC-3 it was 52.8 µM (inactive); in the experiment with UACC-62 it was 22.1 µM (inactive); in the experiment with Hs-578T it was 28.2 µM (inactive). Besides, the GI50 with HCC 2998 is 49.8 µM (inactive); in the experiment on SK-MEL-28 it was 46.6 µM (inactive); in the experiment on NCI-H23, 31.6 µM (inactive); with MCF7, 31.9 µM (inactive); in the experiment with OVCAR-8 it was 51.4 µM (inactive); with UO-31, 31.6 µM (inactive). The GI50 in the experiment with IGROV-1 is 40.7 µM (inactive); in the experiment on BT-549, 44.6 µM (inactive); in the experiment on HCT-116 it was 26.4 µM (inactive); in the experiment with SN12C it was 34.2 µM (inactive); in the experiment on ACHN, 33.8 µM (inactive); in the experiment with HT-29, 35.2 µM (inactive). For the same compound, the GI50 in the experiment with NCI/ADR-RES was 39.6 µM (inactive).

For `CN(C)c1ccc(/C=N/n2c(-c3ccccc3)nc3ccccc3c2=O)cc1`, the GI50 with SNB-19 was 40.8 µM (inactive); in the experiment with U-251, 63.4 µM (inactive); in the experiment on SR it was 14.1 µM (inactive); in the experiment on PC-3, 24.5 µM (inactive); in the experiment on UACC-62, 58.9 µM (inactive); in the experiment with Hs-578T, 20 µM (inactive). Also, the GI50 with HCC 2998 is > 100 µM (inactive); with SK-MEL-28, > 100 µM (inactive); in the experiment on SK-MEL-2, 82.2 µM (inactive); in the experiment on NCI-H23, 28.3 µM (inactive); with MCF7, > 100 µM (inactive); in the experiment on OVCAR-8, 41.6 µM (inactive). The GI50 is > 100 µM (inactive) with IGROV-1; 65.8 µM (inactive) in the experiment with BT-549; 50.6 µM (inactive) in the experiment on HCT-116; 80.9 µM (inactive) in the experiment with SN12C; 18.5 µM (inactive) in the experiment with ACHN; 40 µM (inactive) in the experiment with HT-29. The GI50 with NCI/ADR-RES was 21.8 µM (inactive).

As to `O=S1(=O)N=C(SCc2ccccc2)N(c2ccccc2)c2ccncc21`, the GI50 was 99.8 µM (inactive) with SNB-19; 39.2 µM (inactive) in the experiment with U-251; 21.2 µM (inactive) in the experiment with SR; 25.7 µM (inactive) in the experiment with PC-3; 44.4 µM (inactive) with UACC-62; 31.7 µM (inactive) with Hs-578T. Also, the GI50 in the experiment on HCC 2998 is 38.7 µM (inactive); in the experiment on SK-MEL-28, 91.2 µM (inactive); in the experiment with SK-MEL-2, 34.3 µM (inactive); with NCI-H23 it was 29.6 µM (inactive); in the experiment with MCF7, 31.2 µM (inactive); in the experiment on OVCAR-8, 47.3 µM (inactive). The GI50 was 3.83 µM (inactive) with UO-31; 25.5 µM (inactive) in the experiment on BT-549; 35.3 µM (inactive) in the experiment on HCT-116; 42.2 µM (inactive) in the experiment on SN12C; 57.7 µM (inactive) in the experiment on ACHN; 43.9 µM (inactive) in the experiment with HT-29. The GI50 with NCI/ADR-RES was 21.7 µM (inactive).

Regarding `CCOC(=O)CC1CCN(C(=O)c2ccccc2)C2Cc3c([nH]c4ccccc34)C12C[N+](=O)[O-]` (stereo not drawn), the GI50 in the experiment with U-251 was 78.3 µM (inactive); in the experiment with SR, 39.8 µM (inactive); in the experiment with PC-3 it was 43.5 µM (inactive); with UACC-62 it was 58.7 µM (inactive); in the experiment on Hs-578T, > 100 µM (inactive); in the experiment with SK-MEL-28 it was > 100 µM (inactive). The GI50 in the experiment with SK-MEL-2 was > 100 µM (inactive); with NCI-H23 it was 73.6 µM (inactive); in the experiment on MCF7, 41 µM (inactive); in the experiment on OVCAR-8, 79.3 µM (inactive); in the experiment on UO-31, 48.3 µM (inactive); with IGROV-1, 58.7 µM (inactive). Besides, the GI50 in the experiment on BT-549 is > 100 µM (inactive); in the experiment on SN12C, > 100 µM (inactive); in the experiment on ACHN it was 67 µM (inactive); with HT-29, 62.2 µM (inactive); in the experiment with NCI/ADR-RES, 49.4 µM (inactive).

As to `CC1=NC(=Cc2ccccc2O)C(=O)N1n1c(-c2ccccc2)nc2ccccc2c1=O`, the GI50 is 65.5 µM (inactive) in the experiment on SNB-19; 38.4 µM (inactive) with U-251; 32.5 µM (inactive) in the experiment with SR; 30.3 µM (inactive) in the experiment on PC-3; 14.3 µM (inactive) in the experiment on UACC-62; 51.1 µM (inactive) in the experiment on Hs-578T. The GI50 was 38.1 µM (inactive) in the experiment on HCC 2998; 36.9 µM (inactive) with SK-MEL-28; 32.8 µM (inactive) in the experiment on NCI-H23; 25.6 µM (inactive) in the experiment with MCF7; 33.7 µM (inactive) in the experiment with OVCAR-8; 32.9 µM (inactive) with UO-31. Moreover, the GI50 was 32.1 µM (inactive) with IGROV-1; 57.7 µM (inactive) with BT-549; 26.5 µM (inactive) with HCT-116; 39.9 µM (inactive) with SN12C; 29.7 µM (inactive) in the experiment with ACHN; 32.4 µM (inactive) in the experiment on HT-29. For the same compound, the GI50 in the experiment with NCI/ADR-RES was 33.3 µM (inactive).

Take `O=C(N/C=C1\C(=O)Oc2ccccc2C1=O)Oc1ccccc1`: the GI50 with SNB-19 was 30.6 µM (inactive); with U-251, 23.9 µM (inactive); in the experiment with SR, 18 µM (inactive); in the experiment on PC-3, 29.5 µM (inactive); in the experiment on UACC-62, 20 µM (inactive); in the experiment with Hs-578T it was 9.64 µM (inactive). For the same compound, the GI50 is 24.8 µM (inactive) with HCC 2998; 14.5 µM (inactive) in the experiment on SK-MEL-2; 25.6 µM (inactive) in the experiment on NCI-H23; 35.1 µM (inactive) in the experiment with MCF7; 25.8 µM (inactive) in the experiment with OVCAR-8; 16.4 µM (inactive) with UO-31. Besides, the GI50 is 20.7 µM (inactive) in the experiment on IGROV-1; 18.7 µM (inactive) in the experiment on BT-549; 21.4 µM (inactive) in the experiment with HCT-116; 18.6 µM (inactive) in the experiment on SN12C; 20.9 µM (inactive) with ACHN; 40.8 µM (inactive) in the experiment with HT-29. In addition, in the experiment on NCI/ADR-RES, the GI50 was 27.4 µM (inactive).

Take `CC1(C)CCC2=C(O1)c1ccccc1/C(=N/c1ccc([N+](=O)[O-])cc1)C2=O`: the GI50 was 18.5 µM (inactive) with SNB-19; 14.4 µM (inactive) in the experiment with U-251; 14.2 µM (inactive) with SR; 14 µM (inactive) in the experiment on PC-3; 14.7 µM (inactive) with UACC-62; 29 µM (inactive) with Hs-578T. In addition, the GI50 in the experiment with HCC 2998 is 17.7 µM (inactive); in the experiment on SK-MEL-28, 16.3 µM (inactive); with SK-MEL-2, 16.1 µM (inactive); in the experiment with MCF7, 13.2 µM (inactive); in the experiment on OVCAR-8, 14 µM (inactive); with UO-31 it was 10.6 µM (inactive). Also, the GI50 in the experiment with IGROV-1 is 51.1 µM (inactive); in the experiment on BT-549 it was 20.1 µM (inactive); with HCT-116 it was 7.33 µM (inactive); with ACHN, 12.9 µM (inactive); in the experiment on HT-29, 12.7 µM (inactive); in the experiment with NCI/ADR-RES, 21.2 µM (inactive).

In the case of `CC1=C(C(=O)N[C@@H](Cc2ccccc2)C(=O)O)N2C(=O)[C@@H](NC(=O)[C@@H](N)CC(C)C)[C@H]2SC1`, the GI50 with SNB-19, with U-251, with SR, in the experiment with PC-3, in the experiment on UACC-62 and in the experiment with Hs-578T was > 100 µM (inactive) throughout. Besides, the GI50 in the experiment with HCC 2998, with SK-MEL-28, with SK-MEL-2, with MCF7, in the experiment on OVCAR-8 and with IGROV-1 was > 100 µM (inactive) in each case. Moreover, the GI50 in the experiment on BT-549, in the experiment on SN12C, with ACHN and with NCI/ADR-RES was > 100 µM (inactive) throughout.
